# Test results: paper PMC11786100, “Chronic GIPR agonism results in pancreatic islet GIPR functional desensitisation” (Molecular Metabolism, 2025)
# Assays:
# human GCGR = molecular target: T1, human GCGR (Homo sapiens, UniProt P47871); assay: HTRF cAMP assay in transiently transfected AD-293 cells; format: cell-based; settings: 30 min stimulation, n = 3–5
# T1 construct: Plasmids encoding full length, wild-type human or mouse GLP-1R, GIPR or glucagon receptor (GCGR) in the pcDNA5/FRT vector; host or cells: AD-293
# Description: (§1) AD-293 cells were transfected with desired plasmid DNA 24 h prior to cAMP quantification using the cAMP-Gs Dynamic 2 kit (Cisbio, France), as per manufacturer's protocol. Full details are provided in the supplementary methods.
# (§2) AD-293 cells were added to a 12-well plate and maintained in 2 ml complete DMEM. 1 μg of specified plasmid DNA was added to each well alongside Lipofectamine 2000 (Thermo Fisher, UK). cAMP production was quantified 24 hours following transfection using homogenous time resolved fluorescence (HTRF), specifically the cAMP-Gs Dynamic 2 kit (Cisbio, France). Peptides and cells were diluted in DMEM + 1% P/S + 0.1% BSA. For peptide stability testing, cells, fresh peptide and peptide incubated with dispersed islet cells were diluted in RPMI-1640 (Thermo Fisher, UK) + 10% FBS + 1% P/S. 10 μl of peptide and 10 μl of cell suspension were added in duplicate to an opaque 96-well plate (Grenier Bio-One, Austria) and incubated at 37°C for 30 minutes. 10 μl of cAMP-d2 and anti-cAMP cryptate, both diluted in lysis buffer, were added in quick succession as per the manufacturer’s protocol. The plates were then incubated at room temperature for 45 minutes and read using the SpectraMax i3x (Molecular Devices, US).
# human GIPR = molecular target: T2, human GIPR (Homo sapiens, UniProt P48546); assay: as above; format: cell-based; settings: 30 min stimulation, n = 3–5
# T2 construct: Plasmids encoding full length, wild-type human or mouse GLP-1R, GIPR or glucagon receptor (GCGR) in the pcDNA5/FRT vector; host or cells: AD-293
# T2 sequence (P48546 22-466): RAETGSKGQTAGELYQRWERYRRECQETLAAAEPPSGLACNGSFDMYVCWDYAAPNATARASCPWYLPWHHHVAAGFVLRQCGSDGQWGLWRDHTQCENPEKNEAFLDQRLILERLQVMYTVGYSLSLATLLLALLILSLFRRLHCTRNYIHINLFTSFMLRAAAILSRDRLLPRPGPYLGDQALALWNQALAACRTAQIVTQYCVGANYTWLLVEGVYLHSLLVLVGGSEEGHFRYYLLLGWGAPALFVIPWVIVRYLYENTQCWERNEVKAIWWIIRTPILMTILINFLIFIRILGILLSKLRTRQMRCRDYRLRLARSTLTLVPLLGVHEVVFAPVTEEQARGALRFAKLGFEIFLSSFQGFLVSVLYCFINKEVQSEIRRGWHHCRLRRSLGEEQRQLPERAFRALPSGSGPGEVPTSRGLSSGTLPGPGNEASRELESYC
# Description: as §1, §2
# SNAP-tagged human GIPR = molecular target: T3, SNAP-tagged human GIPR (Homo sapiens, UniProt P48546); assay: Internalisation and receptor surface expression assays in AD-293 cells; format: cell-based; settings: 1 μM
# T3 construct: host or cells: AD-293
# T3 sequence (P48546 22-466): T2 sequence (P48546 22-466)
# Description: (§3) AD-293 cells were transfected with desired plasmid DNA encoding a SNAP-tagged G-protein coupled receptor (GPCR) 24 h prior to assay. For 1 h internalisation assays, cells were labelled for 10 min with cleavable SNAP-tag probe BG-S-S-649 (New England BioLabs, US). Following 1 h treatment with specified peptide, cells were imaged at baseline and after addition of 2-mercaptoethane sulfonate (Mesna). For 4-hour GPCR surface expression assays, cells were treated with the specified peptide for 4 h, prior to 10-minute labelling with BG-S-S-649 and imaging.
# (§4) AD-293 cells were added to a 96-well plate and maintained in 200 μl complete DMEM. […]
# (§5) For 1 hour internalisation assays, cells were labelled with cleavable SNAP-tag probe BG-S-S-649 (New England BioLabs, US) in complete DMEM for 10 minutes prior to washing and 1 hour treatment with specified peptide, reconstituted in DMEM + 0.1% BSA. […] GPCR internalisation was quantified as the cell fluorescence following Mesna addition (representing internalised GPCR), corrected for the baseline cell fluorescence (representing total cellular GPCR).
# (§6) For 4-hour GPCR surface expression assays, cells were treated with specified peptide for 4 hours in complete DMEM prior to labelling with BG-S-S-649. […] GPCR surface expression following peptide treatment was quantified as cell fluorescence as a percentage of cell fluorescence following vehicle treatment.
# SNAP-tagged mouse GIPR = molecular target: T4, SNAP-tagged mouse GIPR (Mus musculus, UniProt Q0P543); assay: as above; format: cell-based; settings: 1 μM, 1-hour treatment, BG-S-S-649/Mesna, n = 3–4
# T4 construct: host or cells: AD-293
# T4 sequence (Q0P543 19-460): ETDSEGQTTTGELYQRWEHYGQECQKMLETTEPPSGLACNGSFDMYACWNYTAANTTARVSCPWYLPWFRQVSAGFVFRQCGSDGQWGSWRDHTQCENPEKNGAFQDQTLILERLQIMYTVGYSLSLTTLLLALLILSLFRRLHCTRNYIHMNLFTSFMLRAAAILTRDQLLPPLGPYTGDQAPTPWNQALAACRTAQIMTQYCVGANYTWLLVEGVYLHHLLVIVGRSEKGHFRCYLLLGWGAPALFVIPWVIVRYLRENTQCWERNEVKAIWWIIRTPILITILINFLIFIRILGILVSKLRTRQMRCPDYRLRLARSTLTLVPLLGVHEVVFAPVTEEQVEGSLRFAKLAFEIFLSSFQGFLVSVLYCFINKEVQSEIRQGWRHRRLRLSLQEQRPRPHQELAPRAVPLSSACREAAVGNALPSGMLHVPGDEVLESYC
# Description: as §3, §4, §5, §6
# [1] = test system: lean and HFD-induced obese mice; assay: In vivo GIPR desensitisation: IPGTT and insulin bleeds; design: species or system mouse
# Description: In all in vivo studies, mice were randomised by body weight into groups. Mice received a 50 μL subcutaneous injection of saline (0.9% sodium chloride) or peptide at a specified dose, diluted in saline. Peptide dosing was in nmol per kg of total body weight. For the assessment of the chronic effects of GIP108, mice were injected daily for 15 days. Body composition was measured by EchoMRI on day −1 and day 15. An intraperitoneal glucose tolerance test (IPGTT) (2 g/kg) was conducted on day 14, following 6 h of fasting and 2 h after peptide injection. Non-fasting plasma leptin (ab199082, Abcam, UK), adiponectin (ab226900, Abcam, UK) and amino acids (ab65347, Abcam, UK) were measured on day 16. For the assessments of in vivo GIPR desensitisation, mice were injected at 17:00 with vehicle or GIP108 (30 nmol/kg) prior to an acute food intake study/IPGTT/insulin bleeds conducted the following day. Full details of the in vivo studies are provided in the supplementary methods.
# Mice were fasted at 08:00. For all studies, 20% glucose was administered at 14:00, with the injection volume adjusted to the body weight of the mouse such that each mouse received glucose at 2 g/kg. To assess effects of GIP108 on day 14 of the chronic study, mice were dosed with saline or GIP108 at a specified dose at 12:00. […] Blood glucose measurements were taken via tail vein venesection at baseline, t=15, t=30, t=60, t=90 and t=120 mins. Glucose AUC is calculated using y=0. Glucose readings were measured in mmol/L using the same GlucoRx glucometer.
# Mice were fasted at 08:00. At 14:00, mice received an intraperitoneal injection with 20% glucose, with the injection volume adjusted to the body weight of the mouse such that each mouse received glucose at 2 g/kg. […] Blood samples were taken via tail vein venesection at baseline and t=15 minutes following injection.
# Leptin, adiponectin and amino acids were quantified following chronic GIP108 administration. Plasma amino acids were measured using the Abcam L-amino acid assay kit (ab65347, Abcam, UK). Plasma adiponectin was measured using the Abcam mouse adiponectin ELISA kit (ab226900, Abcam, UK). Plasma leptin was measured using the Abcam mouse leptin ELISA kit (ab199082, Abcam, UK). All assays were performed according to the manufacturer’s protocol and were read using the SpectraMax i3x Microplate Reader (Molecular Devices, US).
# [2] = Pharmacokinetic study in pigs; format: in vivo; settings: 0.5 mg/pig subcutaneously, male large white pigs, n = 3
# Description: Pharmacokinetic testing of GIP108, administered subcutaneously at 0.5 mg/pig in male large white pigs, was outsourced to Pharmaron Ltd., UK. Full details are stated elsewhere.
# T1 sequence (P47871 26-477): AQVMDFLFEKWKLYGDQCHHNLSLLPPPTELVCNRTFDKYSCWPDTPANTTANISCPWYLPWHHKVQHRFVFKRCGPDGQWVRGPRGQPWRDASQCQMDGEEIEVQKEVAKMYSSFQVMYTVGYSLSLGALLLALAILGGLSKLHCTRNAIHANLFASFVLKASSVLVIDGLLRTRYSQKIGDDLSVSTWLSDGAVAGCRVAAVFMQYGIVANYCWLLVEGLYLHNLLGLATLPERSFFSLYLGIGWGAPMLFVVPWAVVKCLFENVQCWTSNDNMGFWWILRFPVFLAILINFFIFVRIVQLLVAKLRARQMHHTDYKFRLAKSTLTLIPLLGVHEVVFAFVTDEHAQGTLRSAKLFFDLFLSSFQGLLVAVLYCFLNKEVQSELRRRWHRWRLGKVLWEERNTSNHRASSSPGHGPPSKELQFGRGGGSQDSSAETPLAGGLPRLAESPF
smiles,measurement,setting,value
CC[C@H](C)[C@H](NC(=O)[C@H](CO)NC(=O)[C@H](Cc1ccc(O)cc1)NC(=O)[C@H](CC(=O)O)NC(=O)[C@H](CO)NC(=O)[C@@H](NC(=O)[C@H](Cc1ccccc1)NC(=O)[C@@H](NC(=O)CNC(=O)[C@H](CCC(=O)O)NC(=O)C(C)(C)NC(=O)[C@@H](N)Cc1ccc(O)cc1)[C@@H](C)O)[C@@H](C)CC)C(=O)N[C@@H](C)C(=O)N[C@@H](CC(C)C)C(=O)N[C@@H](CC(=O)O)C(=O)N[C@@H](CCCCN)C(=O)N[C@H](C(=O)N[C@@H](Cc1c[nH]cn1)C(=O)N[C@@H](CCC(N)=O)C(=O)N[C@@H](CCC(N)=O)C(=O)N[C@@H](CC(=O)O)C(=O)N[C@@H](Cc1ccccc1)C(=O)N[C@H](C(=O)N[C@@H](CC(N)=O)C(=O)N[C@@H](Cc1c[nH]c2ccccc12)C(=O)N[C@@H](CC(C)C)C(=O)N[C@@H](CC(C)C)C(=O)N[C@@H](C)C(=O)N[C@@H](CCC(N)=O)C(=O)N[C@@H](CCCCN)C(=O)NCC(=O)N[C@@H](CCCCNC(=O)CC[C@H](NC(=O)CCCCCCCCCCCCCCCCCCC(=O)O)C(=O)O)C(=O)N[C@@H](CCCCN)C(=O)N[C@@H](CC(N)=O)C(=O)N[C@@H](CC(=O)O)C(=O)N[C@@H](Cc1c[nH]c2ccccc12)C(=O)N[C@@H](CCCCN)C(=O)N[C@@H](Cc1c[nH]cn1)C(=O)N[C@@H](CC(N)=O)C(=O)N[C@H](C(=O)N[C@H](C(=O)N[C@@H](CCC(N)=O)C(=O)O)[C@@H](C)O)[C@@H](C)CC)C(C)C)[C@@H](C)CC [GIP108],cAMP activation of human GCGR,human GCGR,minimal activation
same,cAMP potency at human GIPR compared with human GIP(1–42),human GIPR,potency similar to human GIP(1–42)
same,receptor internalisation compared to vehicle,"SNAP-tagged human GIPR; 1-hour treatment, BG-S-S-649/Mesna, n = 3–4",increased human GIPR internalisation
same,residual receptor detectable at the cell surface,"SNAP-tagged human GIPR; 4 h treatment, post-stimulation labelling, n = 7–8",reduction in residual human GIPR
same,receptor internalisation compared to vehicle,SNAP-tagged mouse GIPR,did not increase mouse GIPR internalisation
same,effect of GIP108 pre-treatment on hGIP (50 nmol/kg) improvement of glucose tolerance,"[1]; GIP108 30 nmol/kg s.c. 21 h prior to IPGTT, lean and HFD-induced obese mice, n = 14–16",ability to improve glucose tolerance was reduced
same,plasma insulin response to GIP/glucose administration after GIP108 pre-treatment,"[1]; GIP108 30 nmol/kg s.c. 21 h prior, hGIP 50 nmol/kg, 15 min, lean mice, n = 8",blunted
same,half-life,[2],extended half-life
